From PMC7598702, “Phenolome of Asian Agrimony Tea (Agrimonia asiatica Juz., Rosaceae): LC-MS Profile, α-Glucosidase Inhibitory Potential and Stability” (Foods, 2020)

Legend:
[1] = tested on: α-glucosidase; assay: HPLC activity-based profiling (microfractionation) of A. asiatica extract for α-glucosidase inhibition; format: biochemical, Saccharomyces cerevisiae; conditions: microfractions of A. asiatica extract, main inhibition window 11.5 to 13.5 min
Method: Aliquots (100 µL) of A. asiatica extract solution (10 mg/mL) were separated under analytical HPLC conditions as described in Section 2.4. The collection of eluates (40 µL) performed every 30 s in 96-well plates. After drying and redissolving the eluates in 10 µL of PBS the eluates were investigated as described earlier. α-Glucosidase was dissolved in PBS which contained BSA (0.2%) up to 0.5 U/mL concentration and then added 125 µL of PBS and 60 µL p-nitrophenyl-α-D-glucopyranoside (5 mM). The samples were incubated at 37 °C for 5 min and then 60 µL α-glucosidase (0.4 U/mL) was added. The samples were incubated at 37 °C for 15 min. Then 50 µL sodium carbonate (200 mM) was added. Absorbance (A400) was determined at 400 nm. The rates (1-A400) were carried out to create HPLC-based bioactivity profiles of A. asiatica extract.
To characterize the chemical profile of A. asiatica herb extract microcolumn reversed-phase HPLC-PDA procedure was applied (Figure 3a). […] For identification, the components of interest of A. asiatica herb with high α-glucosidase inhibitory activity, the extract was subjected by HPLC activity-based profiling. To detect of anti-α-glucosidase inhibitors in A. asiatica herb extract, the procedure of small-scale semi-preparative microfractionation by reversed-phase HPLC was applied. […] Subsequently, microfractions were dried and redissolved in a buffer solution. Thereafter, an enzyme solution was added to estimate the inhibition of α-glucosidase by the eluate.

[2] = tested on: α-glucosidase; design: method as in PMID 28045450; conditions: agrimoniin from Comarum palustre herb extract; cited from earlier work
[3] = Stability of A. asiatica phenolics in water media (infusions and decoctions, HPLC-MS quantification); format: physicochemical; conditions: boiling infusion (100 °C) and decoctions
Method: Quantification of compounds 1–60 were carried out using HPLC-MS data (full scan MS, peak area). The quantifications were realized under the conditions specified in Section 2.4. For the preparation of the stock solutions, 44 reference compounds (2, 6–16, 19, 23, 26, 28, 31–51, 53–56, 58–60) were carefully weighed (10 mg), then separately dissolved in methanol in a W flask (10 mL). An external standard calibration curve was constructed with the use of six data points (100, 50, 25, 10, 5, and 1 µg/mL). The calibration curves were constructed by plotting the MS peak area vs. concentration levels. Correlation coefficients, r^2; standard deviation, SYX; limits of detection, LOD; limits of quantification, LOQ; linear ranges were computed applying early reference. All analyses were performed in triplicate, data obtained were expressed as mean value ± standard deviation (SD). […] The weight of the tube was reduced to an initial sign after cooling. For analysis, the extract obtained was filtered through 0.22 μm polytetrafluoroethylene (PTFE) syringe filter and then injected into the HPLC system. […]

content change on heat treatment in water [3] | Compound | α-glucosidase inhibition of HPLC peaks [1] | also measured
– | O=C(O[C@H]1O[C@@H]2COC(=O)c3cc(O)c(O)c(O)c3-c3c(cc(O)c(O)c3O)C(=O)O[C@H]2[C@@H]2OC(=O)c3cc(O)c(O)c(O)c3-c3c(cc(O)c(O)c3O)C(=O)O[C@@H]12)c1cc(O)c(O)c(Oc2c(C(=O)O[C@H]3O[C@@H]4COC(=O)c5cc(O)c(O)c(O)c5-c5c(cc(O)c(O)c5O)C(=O)O[C@H]4[C@@H]4OC(=O)c5cc(O)c(O)c(O)c5-c5c(cc(O)c(O)c5O)C(=O)O[C@@H]34)cc(O)c(O)c2O)c1 [Compound 36, Agrimoniin] | most pronounced inhibition | inhibitory activity relative to α-glucosidase [2]: high inhibitory activity
– | O=c1oc2c(O)c(O)cc3c(=O)oc4c(O)c(O)cc1c4c23 [Compound 38, Ellagic acid] | less significant results of inhibition | –
decreased to trace amounts | O=C(O)CC(=O)OC[C@H]1O[C@@H](Oc2c(-c3ccc(O)c(O)c3)oc3cc(O)cc(O)c3c2=O)[C@H](O)[C@@H](O)[C@@H]1O [Compound 45, Quercetin-3-O-(6″-O-malonyl)-glucoside] | – | –
– | O=c1c(O[C@@H]2O[C@H](CO)[C@@H](O)[C@H](O)[C@H]2O)c(-c2ccc(O)c(O)c2)oc2cc(O)cc(O)c12 [Compound 41, Quercetin-3-O-glucoside] | – | α-glucosidase inhibition of HPLC peaks ([1]; listed as isoquercitrin): less significant results of inhibition
decreased to trace amounts | O=C(O)CC(=O)OCC1OC(Oc2cc(-c3cc(=O)c4c(O)cc(O)cc4o3)ccc2O)C(O)C(O)C1O (stereo not drawn) [Compound 53, Luteolin-3-O-(6″-O-malonyl)-glucoside] | – | –
